Data from patent publication US20070071782A1, “2-Cyanobenzenesulfonamides for combating animal pests” (priority 2003, published 2007).

How the values were obtained:
Format in all cases: in vivo
[1] = system: Green Peach Aphid (Myzus persicae); assay: Green Peach Aphid leaf-dip test on pepper plants; details: foliar, 120 h, after 5 days, read-out: mortality in comparison with untreated controls
Experimental: (§1) The active compounds were formulated in 50:50 acetone:water and 100 ppm Kinetic® surfactant.
Pepper plants in the 2nd leaf-pair stage (variety ‘California Wonder’) were infested with approximately 40 laboratory-reared aphids by placing infested leaf sections on top of the test plants. The leaf sections were removed after 24 hr. The leaves of the intact plants were dipped into gradient solutions of the test compound and allowed to dry. Test plants were maintained under fluorescent light (24 hour photoperiod) at about 25° C. and 20-40% relative humidity. Aphid mortality on the treated plants, relative to mortality on check plants, was determined after 5 days.

[2] = system: Argentine ants, Linepithema humile; assay: whole plant or invertebrate; details: for mortality at 1 % strength: Linepithema humile, 144 h, read-out: Mean cumulative % mortality 6 days after treatment
Experimental: • a) The tests were conducted in petri dishes. Ants were given a water source and then were starved of a food source for 24 hours. Baits were prepared with 20% honey/water solution. A solution of the active ingredient in acetone was added to reach a concentration of the active ingredient of 1% by weight (w/w). 0.2 ml of the active ingredient containing honey/water solution, placed in a cap, was added to each dish. The dishes were covered and maintained at a water temperature of 22° C. […]
b) The tests were conducted as in example a). The following compounds I and II according to EP 33984 were used as comparative examples.

[3] = system: Cotton Aphid (Aphis gossypii); assay: Cotton Aphid cotyledon-dip test on cotton plants; details: 120 h, after 5 days, read-out: mortality in comparison with untreated controls
Source text: as §1
Cotton plants in the cotyledon stage (variety ‘Delta Pine’, one plant per pot) were infested by placing a heavily infested leaf from the main colony on top of each cotyledons. The aphids were allowed to transfer to the host plant overnight, and the leaf used to transfer the aphids were removed. The cotyledons were dipped in the test solution and allowed to dry. After 5 days, mortality counts were made.

SMILES	mortality at 300 ppm [1] [%]	mortality compared to untreated controls ([2]; in vivo) [%]	also measured
CCCNS(=O)(=O)c1cccc(C)c1C#N [Compound 1, n-Propyl-(2-cyano-3-methyl-phenyl)sulfonamide]	> 85	–	–
CCN(CC)S(=O)(=O)c1cccc(Cl)c1C#N [Comparative Example I, reference compound]	–	–	mortality at 1 % strength [2]: 35.6%
CCNS(=O)(=O)c1cccc(OC(F)F)c1C#N [Compound 66]	–	100	Mean cumulative % mortality 6 days after treatment ([2]; in vivo): 100.0%
CNS(=O)(=O)c1cccc(OC)c1C#N [Compound 2, Methyl-(2-cyano-3-methoxy-phenyl)sulfonamide]	> 85	–	mortality at 300 ppm [3]: > 85%
CCNS(=O)(=O)c1ccc(Cl)c(C)c1C#N [Compound 3, Ethyl-(4-chloro-2-cyano-3-methyl-phenyl)sulfonamide]	> 85	–	mortality at 300 ppm [3]: > 85%
CCNS(=O)(=O)c1cccc(Cl)c1C#N [Comparative Example II, reference compound]	–	–	mortality at 1 % strength [2]: 35.6%
C#CCNS(=O)(=O)c1cccc(OC(F)F)c1C#N [Compound 79]	–	100	–
N#Cc1c(OC(F)F)cccc1S(N)(=O)=O [Compound 78]	–	100	–
